The target of one experiment is T1, NEP from human kidney (Homo sapiens, UniProt P08473).
T1 construct: Enzyme: NEP from human kidney (prepared using the method of Kenny and Booth); from tissue; host or cells: human kidney
Description: Assay 2: modified NEP fluorescence assay for potent tight-binding inhibitors. Type of experiment: biochemical. The conditions noted are these: as determined by Assay 2, substrate Abz-D-Arg-Arg-Leu-EDDnp, read-out: IC50 against NEP. The procedure: Assay 2: This is a modification of Assay 1 which is adapted for potent tight-binding inhibitors.
Buffer: 50 mM Tris pH 7.4
Buffer containing 4% DMSO: 4 ml DMSO added to 96 ml buffer
Enzyme: NEP from human kidney (prepared using the method of Kenny and Booth, Biochem. J. 142, 575, 1974) aliquots stored at −70° C. The NEP activity of each preparation is determined by using serial dilutions of the preparation in this assay without inhibitor, a dilution that achieves 10 to 15% conversion of substrate is used in inhibitor studies.
Inhibitors: Inhibitors are dissolved in DMSO to give a 10 mM solution then further diluted to 1 mM in DMSO. A further dilution is made (40 μl into 960 μl buffer) to give 4×10^−5M inhibitor in buffer containing 4% DMSO. All further dilutions are made in buffer containing 4% DMSO. Inhibitors are assayed utilising an eight point (half log units) dose response curve in duplicate.
Substrate: The substrate (Abz-D-Arg-Arg-Leu-EDDnp, K. M. Carvalho et al. Analytical Biochem 237, 167-173 (1996)) is stored at −70° C. A 2 mM stock is made in buffer and aliquots stored at −70° C. for up to 1 month.
Stop solution: Phosphoramidon (Sigma R7385) 300 nM in buffer. Aliquots of 300 μM solution are stored at −20° C. and diluted 1000 fold in buffer.
Product: Two samples corresponding to 100% conversion of substrate to product are included in the assay to enable the % substrate turnover to be determined. Add 200 μl of 25 μM product and 100 μl stop solution. A stock of this is generated by incubating 1 ml of 25 μM substrate with 20 μl of enzyme stock overnight at 37° C., aliquot and store at −70° C.
Plates: Black Costar 96 well plate Cat# 3915
Fluorescence reader: BMG Fluostar, read at ex320 em420
1. Add 50 μl of inhibitor (4× assay conc)
3. Add 50 μl of enzyme dilution (1:800)
4. Incubate at 37° C. for 1 hour
5. Initiate the reaction by adding 20 μl of substrate
5. Incubate at 37° C. for 3 hours
6. Add 100 μl of stop solution.
7. Read fluorescence using a FLUOstar. (Ex320/Em420
Included in each assay are:
Non enzyme blanks (enzyme replaced with buffer and compound dilution replaced with 4% DMSO buffer)
Controls (compound dilution replaced with 4% DMSO buffer)
Total product (see below)

The next experiment concerns hypertensive patients. Conditions: added to the ACE inhibitor lisinopril; clinical study involving 37 hypertensive patients; cited from earlier work.
The subject of experiment [1] is black patients with essential hypertension. The conditions noted are these: clinical study of 24 black patients with essential hypertension; cited from earlier work.
Another experiment concerns hypertensive rats. The conditions noted are these: cited from earlier work.

SMILES strings stand for the structures.

T1 sequence (P08473 whole entry): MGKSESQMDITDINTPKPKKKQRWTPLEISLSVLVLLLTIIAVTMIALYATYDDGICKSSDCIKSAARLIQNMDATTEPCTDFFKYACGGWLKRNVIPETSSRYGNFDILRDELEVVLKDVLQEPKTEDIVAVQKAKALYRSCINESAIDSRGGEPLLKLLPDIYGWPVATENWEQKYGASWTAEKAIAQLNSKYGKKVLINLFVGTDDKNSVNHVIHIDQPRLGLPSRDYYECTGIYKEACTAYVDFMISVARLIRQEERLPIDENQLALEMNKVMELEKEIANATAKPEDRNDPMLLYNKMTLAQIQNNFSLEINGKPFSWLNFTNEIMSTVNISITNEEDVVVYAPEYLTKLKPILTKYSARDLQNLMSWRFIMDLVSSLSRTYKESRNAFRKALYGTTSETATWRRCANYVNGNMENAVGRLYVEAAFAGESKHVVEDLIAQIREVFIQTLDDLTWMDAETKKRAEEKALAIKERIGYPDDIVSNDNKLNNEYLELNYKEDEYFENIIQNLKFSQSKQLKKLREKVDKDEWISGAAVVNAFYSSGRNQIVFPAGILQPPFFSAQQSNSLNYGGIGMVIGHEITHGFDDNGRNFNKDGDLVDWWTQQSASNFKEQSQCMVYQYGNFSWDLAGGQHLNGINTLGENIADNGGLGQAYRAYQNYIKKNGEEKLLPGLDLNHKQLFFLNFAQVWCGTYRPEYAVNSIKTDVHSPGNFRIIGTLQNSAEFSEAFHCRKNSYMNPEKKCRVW

In general, IC50 refers to the concentration that gives 50% inhibition. `CCC[C@H](CC1(C(=O)N[C@@H](Cc2ncc(-c3ccccc3)o2)C(=O)O)CCCC1)C(=O)O` [Example 29, (2R)-2-{1-[(1S)-1-Carboxy-2-(5-phenyl-oxazol-2-yl)-ethylcarbamoyl]-cyclopentylmethyl}-pentanoic Acid]: at NEP from human kidney, the IC50 was 0.7 nM.

Consider `COCCOC[C@H](CC1(C(=O)N[C@H]2CC[C@@H](C(=O)O)CC2)CCCC1)C(=O)Oc1ccc2c(c1)CCC2` [candoxatril], for which, in the experiment with hypertensive patients, the “supine and erect blood pressure” value was “marked reduction in both supine and erect blood pressure”.

As to `COCC[C@H](CC1(C(=O)N[C@@H](Cc2ncc(-c3ccc(Cl)cc3)o2)C(=O)O)CCCC1)C(=O)O` [Example 30, (2S)-2-(1-{(1S)-1-Carboxy-2-[5-(4-chloro-phenyl)-oxazol-2-yl]-ethylcarbamoyl}-cyclopentylmethyl)-4-methoxy-butyric Acid], the IC50 on NEP from human kidney came to 0.3 nM.

Regarding `COCC[C@H](CC1(C(=O)N[C@@H](Cc2ncc(-c3ccccc3)o2)C(=O)O)CCCC1)C(=O)O` [Example 40, (2S)-2-{1-[(1S)-1-Carboxy-2-(5-phenyl-oxazol-2-yl)-ethylcarbamoyl]-cyclopentylmethyl}-4-methoxy-butyric Acid], at NEP from human kidney, the IC50 worked out at 0.3 nM.

Regarding `CC1(C)OCC(COC(=O)C(Cc2ccccc2)N[C@@H](Cc2ccccc2)C(=O)NCCC(=O)O)O1` (stereo partly shown) [SCH34826], in experiment [1], the supine blood pressure entry is listed as “significantly lowered supine blood pressure”.

Regarding `COCCOC[C@H](CC1(C(=O)N[C@H]2CC[C@@H](C(=O)O)CC2)CCCC1)C(=O)O` [candoxatrilat], the systolic blood pressure entry with hypertensive rats is given as “lowers systolic blood pressure”.

On to `COCC[C@H](CC1(C(=O)N[C@@H](Cc2ncc(-c3ccc(F)cc3)o2)C(=O)O)CCCC1)C(=O)O` [Example 26], for which the half-inhibitory concentration (IC50) on NEP from human kidney came to 0.3 nM.

These data come from patent US20040138274A1, “Novel pharmaceuticals” (priority 2002, published 2004).
